# Results taken from patent US12617779B2, “Self degradation-type CDK9 inhibitor prodrug and liposome encapsulating same” (Sumitomo Pharma Co., Ltd., priority 2021, dated 2026).
# Columns and labels:
# [1] = Evaluation of conversion rate to active form in BALB/c mouse plasma (Experimental Example 3); format: in vitro ADME; conditions: BALB/c, mouse, 0.2 μmol/L
# Method: (§1) For Example 1, Example 2, Example 3, Example 4, Example 5, Example 6, Comparative Example 3, Comparative Example 4, Comparative Example 6, Comparative Example 7, Comparative Example 8, Comparative Example 9, Comparative Example 10 and Comparative Example 12, the attrition rate of the test compound and the conversion rate of the test compound to Alvocidib in human plasma and BALB/c mouse plasma were calculated by the following method.
# (§2) The test compound was added to human plasma or BALB/c mouse plasma at a concentration of 0.2 μmol/L, and incubated at 37° C. The peak areas of the test compound and Alvocidib in the sample were determined by LC-MS/MS after 0, 30 and 60 minutes for Example 1, Example 2, Example 3, Example 4, Example 5 and Example 6, and after 0, 60 and 120 minutes for Comparative Example 3, Comparative Example 4, Comparative Example 6, Comparative Example 7, Comparative Example 8, Comparative Example 9, Comparative Example 10 and Comparative Example 12, and the attrition rate of the test compound and the conversion rate of the test compound to Alvocidib were calculated by the following formula. Attrition rate of test compound (%):(peak area of test compound in sample/peak area of test compound in sample after 0 minute)×100 Conversion rate to Alvocidib (%):(peak area of Alvocidib in sample/peak area of Alvocidib in reaction solution containing 0.2 μmol/L Alvocidib)×100
# (§3) The measurement conditions for LC-MS/MS are as follows. • HPLC: Prominence system (Shimadzu Corporation) • MS/MS: • Example 1, Example 2, Example 3, Example 4, Example 5, Example 6, Comparative Example 8 (mouse), Comparative Example 10 (mouse) and Comparative Example 12 (mouse) • QTRAP5500 (SCIEX) • Comparative Example 6, Comparative Example 7, Comparative Example 8 (human), Comparative Example 9, Comparative Example 10 (human) and Comparative Example 12 (human) • 4000 QTRAP (SCIEX) • column: • other than Example 3 and Example 4 • Cadenza CD-C18, 3 μm, 50×2 mm (Imtakt Corporation) • Example 3 and Example 4 • Kinetex C8, 2.6 μm, 50×2.1 mm (Phenomenex) • column temperature: 40° C. • mobile phase: • A: water containing 0.1% formic acid • B: acetonitrile containing 0.1% formic acid • A/B (min): • Example 1, Example 2, Example 5, Example 6, Comparative Example 8 (mouse), Comparative Example 10 (mouse) and Comparative Example 12 (mouse) • 90/10(0)→40/60(5.0)→10/90(5.1)→10/90(6.5)→90/10(6.6)→90/10(8.0) • Example 3 and Example 4 • 86/14(0)→86/14(3.5)→10/90(5.5)→10/90(6.5)→86/14(6.6)→86/14(9.5) • Comparative Example 6, Comparative Example 7, Comparative Example 8 (human), Comparative Example 9, Comparative Example 10 (human) and Comparative Example 12 (human) • 90/10(0)→10/90(2.5)→10/90(3.5)→90/10(3.6)→90/10(5.0) • flow rate: 0.4 mL/min • detection: ESI (positive mode) • injection: 1 to 5 μL
# [2] = Evaluation of conversion rate to active form in human plasma (Experimental Example 3); format: in vitro ADME; conditions: human, 0.2 μmol/L
# Method: as §1, §2, §3
# [3] = Evaluation of conversion rate to active form in buffer solution (Experimental Example 1); format: physicochemical
# Method: For Examples 1 to 16 and Comparative Examples 1 to 14, the attrition rate of the test compound and the conversion rate of the test compound to Alvocidib in a buffer solution were calculated by the following method.
# Examples 1 to 16 and Comparative Examples 1 to 14 were each left in buffer solutions adjusted to pH 5.0, 5.5, 6.0, 6.5, 7.0 and 7.4, respectively, at a concentration of 25 umol/L at 37° C. After 0, 0.5, 1, 2 and 3 hours, the residual rates of the compounds of Examples […] and the production rate of Alvocidib were determined by HPLC.
# The buffer solutions used at each pH are as follows. • pH 5.0: 50 mM citrate buffer solution (pH 5.0) • pH 5.5: 50 mM citrate buffer solution (pH 5.5) • pH 6.0: 50 mM phosphate buffer solution (pH 6.0) • pH 6.5: 50 mM phosphate buffer solution (pH 6.5) • pH 7.0: 50 mM phosphate buffer solution (pH 7.0) • pH 7.4: 50 mM phosphate buffer solution (pH 7.4)
# The measurement conditions for HPLC are as follows.
smiles,measurement,setting,value
"CCNC(=O)O[C@@H]1CN(C)CC[C@@H]1c1c(O)cc(O)c2c(=O)cc(-c3ccccc3Cl)oc12 [Comparative Example 4, reference compound]",Production rate (%) of Alvocidib,[1]; 0 min,2%
same,Residual rate (%) of test compound,[1]; 0 min,100%
same,Production rate (%) of Alvocidib,[1]; 60 min,3%
same,Residual rate (%) of test compound,[1]; 60 min,94%
same,Production rate (%) of Alvocidib,[1]; 120 min,3%
same,Residual rate (%) of test compound,[1]; 120 min,92%
same,Production rate (%) of Alvocidib,[2]; 0 min,2%
same,Residual rate (%) of test compound,[2]; 0 min,100%
same,Production rate (%) of Alvocidib,[2]; 60 min,3%
same,Residual rate (%) of test compound,[2]; 60 min,101%
same,Production rate (%) of Alvocidib,[2]; 120 min,3%
same,Residual rate (%) of test compound,[2]; 120 min,134%
same,Production rate of Alvocidib,"[3]; pH5.0, 0 hr",1.7%
same,Residual rate,"[3]; pH5.0, 0 hr",97.7%
same,Production rate of Alvocidib,"[3]; pH5.0, 0.5 hr",1.8%
same,Residual rate,"[3]; pH5.0, 0.5 hr",97.8%
same,Production rate of Alvocidib,"[3]; pH5.0, 1 hr",1.7%
same,Residual rate,"[3]; pH5.0, 1 hr",97.8%
same,Production rate of Alvocidib,"[3]; pH5.0, 2 hr",1.8%
same,Residual rate,"[3]; pH5.0, 2 hr",97.7%
same,Production rate of Alvocidib,"[3]; pH5.0, 3 hr",1.8%
same,Residual rate,"[3]; pH5.0, 3 hr",97.7%
same,Production rate of Alvocidib,"[3]; pH5.5, 0 hr",1.8%
same,Residual rate,"[3]; pH5.5, 0 hr",97.8%
same,Production rate of Alvocidib,"[3]; pH5.5, 0.5 hr",1.8%
same,Residual rate,"[3]; pH5.5, 0.5 hr",97.6%
same,Production rate of Alvocidib,"[3]; pH5.5, 1 hr",1.8%
same,Residual rate,"[3]; pH5.5, 1 hr",97.7%
same,Production rate of Alvocidib,"[3]; pH5.5, 2 hr",1.8%
same,Residual rate,"[3]; pH5.5, 2 hr",97.8%
same,Production rate of Alvocidib,"[3]; pH5.5, 3 hr",1.8%
same,Residual rate,"[3]; pH5.5, 3 hr",97.6%
same,Production rate of Alvocidib,"[3]; pH6.0, 0 hr",1.8%
same,Residual rate,"[3]; pH6.0, 0 hr",97.8%
same,Production rate of Alvocidib,"[3]; pH6.0, 0.5 hr",1.8%
same,Residual rate,"[3]; pH6.0, 0.5 hr",97.7%
same,Production rate of Alvocidib,"[3]; pH6.0, 1 hr",1.7%
same,Residual rate,"[3]; pH6.0, 1 hr",97.7%
same,Production rate of Alvocidib,"[3]; pH6.0, 2 hr",1.8%
same,Residual rate,"[3]; pH6.0, 2 hr",97.7%
same,Production rate of Alvocidib,"[3]; pH6.0, 3 hr",1.8%
same,Residual rate,"[3]; pH6.0, 3 hr",97.7%
same,Production rate of Alvocidib,"[3]; pH6.5, 0 hr",1.8%
same,Residual rate,"[3]; pH6.5, 0 hr",97.7%
same,Production rate of Alvocidib,"[3]; pH6.5, 0.5 hr",1.8%
same,Residual rate,"[3]; pH6.5, 0.5 hr",97.6%
same,Production rate of Alvocidib,"[3]; pH6.5, 1 hr",1.8%
same,Residual rate,"[3]; pH6.5, 1 hr",97.7%
same,Production rate of Alvocidib,"[3]; pH6.5, 2 hr",1.8%
same,Residual rate,"[3]; pH6.5, 2 hr",97.8%
same,Production rate of Alvocidib,"[3]; pH6.5, 3 hr",1.8%
same,Residual rate,"[3]; pH6.5, 3 hr",97.7%
same,Production rate of Alvocidib,"[3]; pH7.0, 0 hr",1.8%
same,Residual rate,"[3]; pH7.0, 0 hr",97.7%
same,Production rate of Alvocidib,"[3]; pH7.0, 0.5 hr",1.8%
same,Residual rate,"[3]; pH7.0, 0.5 hr",97.7%
same,Production rate of Alvocidib,"[3]; pH7.0, 1 hr",1.8%
same,Residual rate,"[3]; pH7.0, 1 hr",97.6%
same,Production rate of Alvocidib,"[3]; pH7.0, 2 hr",1.8%
same,Residual rate,"[3]; pH7.0, 2 hr",97.6%
same,Production rate of Alvocidib,"[3]; pH7.0, 3 hr",1.8%
same,Residual rate,"[3]; pH7.0, 3 hr",97.7%
same,Production rate of Alvocidib,"[3]; pH7.4, 0 hr",1.8%
same,Residual rate,"[3]; pH7.4, 0 hr",97.7%
same,Conversion to Alvocidib at pH 7.4,"[3]; pH 7.4, 37° C., up to 3 hours",slowly converted to Alvocidib
same,Production rate of Alvocidib,"[3]; pH7.4, 0.5 hr",1.8%
same,Residual rate,"[3]; pH7.4, 0.5 hr",97.6%
same,Production rate of Alvocidib,"[3]; pH7.4, 1 hr",1.7%
same,Residual rate,"[3]; pH7.4, 1 hr",97.7%
same,Production rate of Alvocidib,"[3]; pH7.4, 2 hr",1.8%
same,Residual rate,"[3]; pH7.4, 2 hr",97.7%
same,Production rate of Alvocidib,"[3]; pH7.4, 3 hr",1.8%
same,Residual rate,"[3]; pH7.4, 3 hr",97.8%
